Like-named read-outs stand apart in the source and are kept apart here.
Legend:
[1] = tested on: patients with fibromyalgia
Description: Quantification of improvement may be measured according to methods known in the art. For example, pain may be measured using tender point count, the McGill Pain Questionnaire, the Arthritis Impact Measurement Scales (AIMS), the Sickness Impact Profile (SIP), the Health Assessment Questionnaire (HAQ) functional disability index, the Symptom Checklist-90R, and dolorimeter scores. […] (Alarcon, Graciela, et al., “Advances in the Treatment of Fibromyalgia: Current Status and Future Directions”, Am. J. Med. Sciences, 315:397-404 (1998).)
(§1) The quality of sleep (“sleep disturbance”) may be determined, inter alia, by asking the patient if he/she awakened tired or nonrefreshed “never,” “seldom,” “often or usually,” or “always.” Replies of “often or usually” or “always” may be scored as positive and other replies as negative. Patients reports of well-being or relief from “zombie” or “spacey” feelings, feelings of being “run down,” and having difficultly concentrating during waking hours are indications of better quality of sleep or deep, refreshing sleep.
They were on a dose of ⅓ tablet of cyclobenzaprine (3 33 mg).
patient four, a person homemaker, presented with complaints of chest pain previously attributed to their known history of mitral valve prolapse. They also complained of a several year history of fatigue.
patient two, a active grandparent, presented with the new onset of cervical and lumbar muscular pains associated with poor quality sleep and fatigue. The patient was diagnosed with fibromyalgia.
patient seven, a person homemaker, presented with complaints of diffuse pain and fatigue.
patient three, a person homemaker, presented with complaints of right trapezius spasm. They had recently been started on paroxetine, 20 mg p.o. qd for mild depression, and had also noted disrupted sleep quality with frequent awakening with resultant fatigue and daytime somnolence. […] They were diagnosed with fibromyalgia and was begun on cyclobenzaprine 10 mg p.o. qHS for the diagnosis of fibromyalgia and possible sleep disturbance due to the SSRI paroxetine.
patient one, a person homemaker, had recently given birth to a healthy baby, and in during the later stages of pregnancy and in the post-partem period noted fatigue and exhaustion associated with multiple areas of muscular soreness.
patient six, a executive, presented with complaints of “burning pains” in their muscles, associated with sleep disturbance with frequent awakening and resultant fatigue.
patient five, a executive, had been tried on multiple medications by a “fibromyalgia specialist,” who according to the patient had performed over $2,000 in blood tests, diagnosing “yeast infection in the blood” and multiple allergies.

[2] = tested on: patients with sleep disturbance; conditions: single patient report
Description: as §1

[3] = tested on: cyclobenzaprine-treated patients; conditions: cited from earlier work
fibromyalgia patients [4] = conditions: twenty to forty mgs per day; twelve fibromyalgia patients; cited from earlier work
fibromyalgia patients [5] = conditions: cited from earlier work
fibromyalgia patients [6] = conditions: five mgs per day; some fibromyalgia patients; anecdotal; cited from earlier work
[7] = ⅓ tablet (3 33 mg), single patient report

CNCCC=C1c2ccccc2CCc2ccccc21 [nortriptyline]
Response to trial of nortriptyline ([1]; fibromyalgia patient not helped by cyclobenzaprine 2.5 mg, dose not given): did well

CN(C)CCC=C1c2ccccc2C=Cc2ccccc21 [cyclobenzaprine, 3-(5H-Dibenzo[a,d]cyclohepten-5-ylidene)-N,N-dimethyl-1-propanamine]
Symptom response ([1]; 10 mg p.o. qHS, single patient report): helping their muscular pains
Course after stopping cyclobenzaprine ([1]; discontinuation of ¼ tablet (2.5 mg), single patient report): immediate return of all of their previous symptoms
Effect on sleep disturbance, fatigue and diffuse pain ([1]; less than 5 mg/day qHS, applicant's summary for many patients): surprisingly effective at treating the sleep disturbance
Symptom response ([1]; ½ tablet (5 mg) p.o. qHS, single patient report): symptoms abated
Side effects [1, 7]: no adverse effects
Symptom response [1, 7]: alleviated their symptoms
Sleep and energy response ([2]; ¼ to ½ tablet (2.5-5 mg)): improved sleep and increased energy, with resolution of their daytime somnolence
Side effects ([2]; ½ tablet (5 mg)): “grogginess” during the day
Less common side effects ([3]; cyclobenzaprine treatment): nausea, tiredness, constipation, blurred vision, nervousness, confusion, abdominal pain and discomfort
Organ toxicity ([3]; recommended doses): No indications of organ toxicity
Toxic effects on overdose ([3]; three individuals who ingested between 260 to 900 mg): Toxic effects were reported
Alpha non-REM EEG sleep anomaly and mood ratings (fibromyalgia patients [4]): did not favorably change
Pain (tender point count and dolorimetry) (fibromyalgia patients [4]): did not experience decreased pain
Difference in efficacy between regimens (fibromyalgia patients [5]; 10 mg/day vs 30 mg/day): no significant difference in efficacy
Tender points, quality of sleep and other symptoms (fibromyalgia patients [5]; 10 mg/day): decline in the number of tender points and improvement in the quality of sleep, anxiety, fatigue, irritable bowel syndrome and stiffness
Tender points, quality of sleep and other symptoms (fibromyalgia patients [5]; 30 mg/day): decline in the number of tender points and improvement in the quality of sleep, anxiety, fatigue, irritable bowel syndrome and stiffness
Response to treatment (fibromyalgia patients [6]): responded “favorably”

Source: US6541523B2, “Methods for treating or preventing fibromyalgia using very low doses of cyclobenzaprine” (Vela Pharmaceuticals, Inc., priority 1999, dated 2003)
